For 17 molecules, IC50 results are on record in patent US20240336601A1 (Chulalongkorn University, priority 2020, published 2024).

The structures appear in SMILES notation.

In one test the target is T1, PD-1/PD-L1 interaction (Homo sapiens, UniProt Q9NZQ7).
T1 construct: expressed in transfected cells
Put plainly: PD-1/PD-L1 blockage cell-based bioassay (Jurkat NFAT luciferase / CHO-PDL1 co-culture). The following applies: Jurkat NFAT cells co-cultured with CHO-PDL1 cells, 6 h, luminescence.

Test [1] has as its target interaction between PD-1 and PD-L1 (Homo sapiens, UniProt Q9NZQ7). Put plainly: PD-1/PD-L1 protein-protein interaction assay (ALPHA). It counts as binding. The conditions noted are these: 2 nM His-tagged human PD-L1, 0.6 nM PD-1-Fc, AlphaScreen. For orientation: Bead proximity is the source of the signal in Alpha formats.
Experimental: PD-1′PD-L1 Protein-Protein Interaction Assay
Amplified Luminescent Proximity Homogeneous Assay (ALPHA) platform was used to evaluate the ability of the compounds to block the interaction between PD-1 and PD-L1. The assays were performed in half volume white 96-well plate in a final volume of 40 μl. Compounds at various concentrations were preincubated with 2 nM His tagged recombinant human PD-L1 protein and 0.6 nM recombinant PD-1 protein with Fc-tag (both reagents were purchased from AcroBiosystems) for 40 minutes. After the preincubation, 20 μg/mL of Alphascreen Ni chelate donor beads (PerkinElmer, USA) and Protein A acceptor beads (PerkinElmer, USA) were added into the well and incubated under reduced light at 25° C. for 120 minutes. The signal was measured with the EnSight Multimode Plate Reader. IC50 values were calculated from the four-parameter logistic curve fit.

T1 sequence (Q9NZQ7 19-290): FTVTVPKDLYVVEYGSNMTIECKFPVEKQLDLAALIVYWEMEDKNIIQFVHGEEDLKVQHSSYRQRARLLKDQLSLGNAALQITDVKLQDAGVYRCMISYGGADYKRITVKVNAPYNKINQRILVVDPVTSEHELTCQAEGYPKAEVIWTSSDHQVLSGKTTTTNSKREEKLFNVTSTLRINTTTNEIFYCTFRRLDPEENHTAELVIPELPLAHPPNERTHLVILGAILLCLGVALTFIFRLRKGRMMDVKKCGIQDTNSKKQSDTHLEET
Sequence of interaction between PD-1 and PD-L1 (Q9NZQ7 19-238 limits assumed): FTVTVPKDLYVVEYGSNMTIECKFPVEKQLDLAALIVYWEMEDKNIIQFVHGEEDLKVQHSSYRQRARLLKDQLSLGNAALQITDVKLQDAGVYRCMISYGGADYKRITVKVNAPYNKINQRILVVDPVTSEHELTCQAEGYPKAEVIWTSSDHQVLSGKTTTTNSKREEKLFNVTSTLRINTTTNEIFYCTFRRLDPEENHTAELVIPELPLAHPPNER
Experimental for PD-1/PD-L1 interaction: PD-1/PD-L1 Blockage Cell-Based Bioassay
Jurkat T cells expressing human PD-1 and luciferase gene reporter driven by TCR-mediated NFAT response element (Jurkat NFAT) were co-cultured with CHO-kl cells expressing human PD-L1 and surface-bound TCR activator (CHO-PDL1). […] CHO-PDL1 cells (20,000 cells/well) were seeded overnight. Compounds were added on CHO-PDL1 and incubated for 2 h at 37° C. Jurkat NFAT cells (20,000 cells/well) were diluted in RPMI assay medium (RPMI1640 with 1% FBS) and added into each well. After co-incubation for 6 h at 37° C., luminescence was determined by adding Bio-Glo™ Luciferase reagent (Promega) and measured with a luminescence plate reader. EC50 values were calculated from the four-parameter concentration-response curves.

With `COc1cc(-n2ncc3c(-c4cccc(-c5ccc(C6=NCCN6)c(OC)n5)c4Cl)cccc32)cc(OC)c1CNC[C@H]1C[C@@H](O)C1` [Example 77, cis-3-(((4-(4-(2-chloro-3-(5-(4,5-dihydro-1H-imidazol-2-yl)-6-methoxypyridin-2-yl)phenyl)-1H-indazol-1-yl)-2,6-dimethoxybenzyl)amino)methyl)cyclobutanol], the IC50 (usually the concentration that inhibits the measured activity by half) on PD-1/PD-L1 interaction is 201 to 2000 nM; in test [1] it was less than 1 nM.

Regarding `COC(=O)C1CC[C@H](NCc2ccc(-c3cccc(-c4cccc5c4ccn5-c4cc(OC)c(CNC[C@@H]5CCC(=O)N5)c(OC)c4)c3Cl)nc2OC)C1` (stereo partly shown) [Example 50], the results for the IC50 (at PD-1/PD-L1 interaction; in test [1]) were more than 2000 nM and 10 to 100 nM, respectively.

Consider `COc1cc(-n2ncc3c(-c4cccc(-c5ccc(CNC[C@H]6C[C@@H](O)C6)c(OC)n5)c4Cl)cccc32)cc(OC)c1CN1CC(C)(C(=O)O)C1` [Example 47], for which the values for the IC50 (against PD-1/PD-L1 interaction; in test [1]) were less than 200 nM and less than 1 nM, respectively.

On to `COc1cc(-n2ncc3c(-c4cccc(-c5ccc(CNC[C@@H](C)O)c(OC)n5)c4Cl)cccc32)cc(OC)c1CNC[C@@H](C)O` [Example 127, (R)-1-(((6-(2-chloro-3-(1-(4-((((R)-2-hydroxypropyl)amino)methyl)-3,5-dimethoxyphenyl)-1H-indazol-4-yl)phenyl)-2-methoxypyridin-3-yl)methyl)amino)propan-2-ol], for which the IC50 is less than 200 nM against PD-1/PD-L1 interaction and less than 1 nM in test [1].

Turning to `COc1cc(-n2ncc3c(-c4cccc(-c5ccc(CN6CC7(CNC(=O)C7)C6)c(OC)n5)c4Cl)cccc32)ncc1CN[C@H]1C[C@@H](O)C1` [Example 111, 2-((6-(2-chloro-3-(1-(5-(((cis-3-hydroxycyclobutyl)amino)methyl)-4-methoxypyridin-2-yl)-1H-indazol-4-yl)phenyl)-2-methoxypyridin-3-yl)methyl)-2,6-diazaspiro[3.4]octan-7-one], the figures for the IC50 (at PD-1/PD-L1 interaction; in test [1]) were 201 to 2000 nM and less than 1 nM, respectively.

On to `COc1cc(-n2ncc3c(-c4cccc(-c5ccc(CN[C@H]6C[C@@H](O)C6)c(OC)n5)c4Cl)cccc32)ncc1CN[C@@H](CO)C(N)=O` [Example 118, (S)-2-(((6-(4-(2-chloro-3-(5-(((cis-3-hydroxycyclobutyl)amino)methyl)-6-methoxypyridin-2-yl)phenyl)-1H-indazol-1-yl)-4-methoxypyridin-3-yl)methyl)amino)-3-hydroxypropanamide], for which the IC50 on PD-1/PD-L1 interaction is more than 2000 nM; in test [1], less than 1 nM.

Take `COc1cc(-n2ccc3c(-c4cccc(-c5ccc(CN6CC(C)(C(=O)O)C6)c(OC)n5)c4Cl)ccnc32)cc(OC)c1CNC[C@@H]1CCC(=O)N1` [Example 70, (S)-1-((6-(2-chloro-3-(1-(3,5-dimethoxy-4-((((5-oxopyrrolidin-2-yl)methyl)amino)methyl)phenyl)-1H-pyrrolo[2,3-b]pyridin-4-yl)phenyl)-2-methoxypyridin-3-yl)methyl)-3-methylazetidine-3-carboxylic acid]: the IC50 at PD-1/PD-L1 interaction was more than 2000 nM; in test [1], 1 to 10 nM.

In the case of `COc1cc(-n2ccc3c(-c4cccc(-c5ccc(CNC[C@@H]6CCC(=O)N6)c(OC)n5)c4Cl)cccc32)cc(OC)c1CNCC(C)(C)C(=O)O` [Example 42], the IC50 is less than 200 nM on PD-1/PD-L1 interaction and less than 1 nM in test [1].

As to `COc1cc(-n2ccc3c(-c4cccc(-c5ccc(CN6CC(C)(O)C6)c(OC)n5)c4Cl)cccc32)cc(OC)c1CN1CC2(CNC(=O)C2)C1` [Example 84, 2-(4-(4-(2-chloro-3-(5-((3-hydroxy-3-methylazetidin-1-yl)methyl)-6-methoxypyridin-2-yl)phenyl)-1H-indol-1-yl)-2,6-dimethoxybenzyl)-2,6-diazaspiro[3.4]octan-7-one], the IC50 at PD-1/PD-L1 interaction was 201 to 2000 nM; in test [1], less than 1 nM.

As to `COc1cc(-n2ccc3c(-c4cccc(-c5ccc(CNC[C@@H]6CCC(=O)N6)c(OC)n5)c4Cl)cccc32)cc(OC)c1CN1CC[C@@H](NC(C)=O)C1` [Example 38], the 50% inhibitory concentration (IC50) on PD-1/PD-L1 interaction is more than 2000 nM; in test [1] it was 10 to 100 nM.

For the molecule `COc1cc(-n2ncc3c(-c4cccc(-c5ccc(CNC[C@@H]6CCC(=O)N6)c(OC)n5)c4Cl)cccc32)cc(OC)c1CNCC1(C(=O)O)CC1` [Example 66, (S)-1-(((4-(4-(2-chloro-3-(6-methoxy-5-((((5-oxopyrrolidin-2-yl)methyl)amino)methyl)pyridin-2-yl)phenyl)-1H-indazol-1-yl)-2,6-dimethoxybenzyl)amino)methyl)cyclopropanecarboxylic acid], the 50% inhibitory concentration (IC50) is less than 200 nM on PD-1/PD-L1 interaction and less than 1 nM in test [1].

On to `COc1cc(-n2ncc3c(-c4cccc(-c5ccc(CN6CC7(CNC(=O)C7)C6)c(OC)n5)c4Cl)cccc32)cc(OC)c1CN[C@@](C)(CO)C(=O)O` [Example 139, (S)-2-((4-(4-(2-chloro-3-(6-methoxy-5-((7-oxo-2,6-diazaspiro[3.4]octan-2-yl)methyl)pyridin-2-yl)phenyl)-1H-indazol-1-yl)-2,6-dimethoxybenzyl)amino)-3-hydroxy-2-methylpropanoic acid], for which the 50% inhibitory concentration (IC50) against PD-1/PD-L1 interaction was less than 200 nM; in test [1], less than 1 nM.

With `COc1cc(-n2ccc3c(-c4cccc(-c5ccc(CNC[C@@H]6CCC(=O)N6)c(OC)n5)c4Cl)ccnc32)cc(OC)c1CN1CC(C)(C(=O)NC2CC2)C1` [Example 46], the half-maximal inhibitory concentration (IC50) is more than 2000 nM on PD-1/PD-L1 interaction and 1 to 10 nM in test [1].

Take `COc1cc(-n2ccc3c(-c4cccc(-c5cnc(CNC[C@@H]6CCC(=O)N6)c(OC)n5)c4Cl)cccc32)cc(OC)c1CNC[C@@H]1CCC(=O)N1` [Example 65, (S)-5-((((5-(2-chloro-3-(1-(3,5-dimethoxy-4-(((((S)-5-oxopyrrolidin-2-yl)methyl)amino)methyl)phenyl)-1H-indol-4-yl)phenyl)-3-methoxypyrazin-2-yl)methyl)amino)methyl)pyrrolidin-2-one]: the results for the 50% inhibitory concentration (IC50) (against PD-1/PD-L1 interaction; in test [1]) were 201 to 2000 nM and 1 to 10 nM, respectively.

Take `COc1cc(-n2ncc3c(-c4cccc(-c5ccc(CN6CC7(CNC(=O)C7)C6)c(OC)n5)c4Cl)cccc32)cc(OC)c1CN1CC2(CNC(=O)C2)C1` [Example 90, 2-(4-(4-(2-chloro-3-(6-methoxy-5-((7-oxo-2,6-diazaspiro[3.4]octan-2-yl)methyl)pyridin-2-yl)phenyl)-1H-indazol-1-yl)-2,6-dimethoxybenzyl)-2,6-diazaspiro[3.4]octan-7-one]: the 50% inhibitory concentration (IC50) fell in the range of 201 to 2000 nM on PD-1/PD-L1 interaction and 1 to 10 nM in test [1].

Regarding `COc1cc(-n2ncc3c(-c4cccc(-c5ccc(CNC[C@@H]6CCC(=O)N6)c(OC)n5)c4Cl)cccc32)cc(OC)c1CN[C@H](CO)C(=O)O` [Example 123, (4-(4-(2-chloro-3-(6-methoxy-5-(((((S)-5-oxopyrrolidin-2-yl)methyl)amino)methyl)pyridin-2-yl)phenyl)-1H-indazol-1-yl)-2,6-dimethoxybenzyl)-D-serine], the concentration for half-maximal inhibition (IC50) at PD-1/PD-L1 interaction was less than 200 nM; in test [1], less than 1 nM.

Turning to `COc1cc(-n2ncc3c(-c4cccc(-c5ccc(CN6CC7(CNC(=O)C7)C6)c(OC)n5)c4F)cccc32)cc(OC)c1CNC[C@@H]1CCC(=O)N1` [Example 135, (S)-2-((6-(2-fluoro-3-(1-(3,5-dimethoxy-4-((((5-oxopyrrolidin-2-yl)methyl)amino)methyl)phenyl)-1H-indazol-4-yl)phenyl)-2-methoxypyridin-3-yl)methyl)-2,6-diazaspiro[3.4]octan-7-one], the 50% inhibitory concentration (IC50) at PD-1/PD-L1 interaction was less than 200 nM; in test [1], less than 1 nM.
